Data set [1] has as its system AR transactivation. Description: AR transactivation, MMTV-luc / (ARE)4-luc luciferase reporter assay. In kind it is cell-based. The settings on record: LNCaP MMTV-luc and CWR22 (ARE)4-luc.
For another data set, the system named is AR protein levels. The data set can be described thus: AR protein (Western blot) and AR mRNA (Northern blot) levels. The format is cell-based. As to conditions: LNCaP, transfected. In general terms: In western blotting, separated proteins are transferred to a membrane and probed.
For the next data set, the system named is LNCaP cells. The data set can be described thus: DHT/TPA-induced apoptosis in LNCaP cells, TUNEL assay. In kind it is cell-based. The settings on record: for LNCaP cell apoptosis, agent per se: 10 nM DHT or 1 nM TPA alone. Here is the method:
(§1) 18. […] (A) Akt suppressed androgen/AR-induced p21 promoter activity. […] (B) Androgen/AR-induced PC-3(AR)6 apoptosis and p21 protein expression was blocked by Akt PC-3(AR)6 was transfected with pCDNA3, cAkt, or dAkt, as indicated, for 16 h. […] (C) AR-induced p21 protein expression was enhanced by dAkt in LNCaP cells. […] LNCaP stable transfection with dAkt was confirmed by western blot assay using phospho-Akt (Ser473) antibody. […] TPA was then added for another 24 h and cell apoptosis was determined by TUNEL assay. […] IGF-1 was added for another 30 min, followed by 10 nM TPA treatment for another 24 h. The apoptosis was determined by TUNEL assay. The data are means±s.d. from three independent experiments.
(§2) 281. The TUNEL assay was performed to measure the cell apoptosis according to the standard procedures (Oncogene Research Products). At least 200 cells were scored for each sample and the data are means±s.d. from three independent experiments.

For a further data set, the system named is PSA mRNA expression. Description: PSA mRNA expression in LNCaP cells, Northern blot. In kind it is cell-based.
For a further data set, the system named is IL-6 protein expression. The data set can be described thus: IL-6 secretion by LNCaP cells (ELISA). In kind it is cell-based. Here is the method: 11. […] IL-6 secretion in the medium was determined by ELISA. […] LNCaP cells, were serum starved for 24 h. […] PI3K activity was measured using PI as a substrate. The origin (ori) of the chromatogram and PI3-phosphate (PI3P) were indicated.
259. […] The IL-6 protein level in the supernatants was then evaluated by BLISA.

For data set [2], the system named is wtAR, mtARt877a, PR, VDR, ER transactivation. The data set can be described thus: Steroid receptor transactivation with Smad3 in DU145 cells (wtAR, mtARt877a, PR, VDR, ER). The format is cell-based, human. As to conditions: for wtAR transactivation response to ligand: DHT 10 nM, HF 1 μM, E2 10 nM.
Another data set concerns PI3K. The data set can be described thus: PI3K activity assay using phosphatidylinositol as substrate. The format is cell-based, human. As to conditions: LNCaP. How it is done:
(§3) 251. IL-6's effect on PI3K activity was tested. After serum starvation for 24 h, LNCaP, PC-3 or DU145 cells were treated with 50 μg/ml IL-6 for 30 minutes. The cells were then harvested. PI3K activity was measured by using phosphatidylinositol (PT) as a substrate. […] The transactivation was measured by CAT activity.
260. […] PI3K activity was measured using PI as a substrate.
265. PI3K activity was determined as previously described. Vlahos, C. J. et al, J. Biol. Chem. 269, 5241-5148 (1994).

A further data set deals with p21 expression. The data set can be described thus: p21 promoter activity (luciferase) and p21 protein expression. The format is cell-based. As to conditions: PC-3 cells; 10 nM DHT. Here is the method:
as §1

The subject of data set [3] is AR transactivation. The data set can be described thus: AR transactivation, MMTV-CAT reporter in DU145 cells transfected with AR. The format is cell-based, human.
Source text: 250. To dissect the divergent effects of IL-6 in prostate tumor growth, Qui, Y. et al., Nature 393, 83-85 (1998); Hobisch, A. et al., Cancer Res. 58, 4640-4645 (1998); Ritchie, C. K. et al., Endocrinology 138, 1145-1150 (1997), the potential influences of IL-6 on the transactivation of AR, the master regulator of the prostate tumor growth were studied. Chang, C. et al., Science 240, 324.326 (1988); Chang, C. et al., Crit. Rev. Eukaryotic Gene Expression 5, 97-125 (1995). Because IL-6 has two major signal cascades, mitogen-activated protein kinase (MAPK) and phosphatidylinositol 3-kinase (PI3K), Qui, Y. et al., Nature 393, 83-85 (1998); Qui, Y. et al., Proc. Natl. Acad. Sci. USA 95, 3644-3649 (1998), inhibitors were applied to specifically block one of these two IL-6 signal pathways. DU145 cells were transfected for 24 h with AR and MMTV-CAT reporter gene. After transfection, the cells were serum starved for 24 h. Next, 20 μM LY294002, P098059 or vehicle was added to serum-free medium 30 min prior to IL-6 treatment. […] The cells were then harvested and AR transactivation was measured by CAT activity. […] Vlahos, C. J. et al., J. Biol. Chem. 269, 5241-5148 (1994). […] Alessi, D. R. et al., J. Biol. Chem. 270, 27489-27494 (1995).
as §3
252. Focus then turned to the two major downstream effectors of PI3K: a serine/threonine kinase (Akt/PKB) and a ribosomal S6 kinase (p70S6k). Franke, T. F. et al., Cell 88,435-437 (1997). […] The transactivation activity was determined after 24 h transfection.
262. The DU145 and PC-3 cells were maintained in Dulbecco's Minimum Essential Medium (DMEM) containing penicillin (25 μg/m1), streptomycin (25 μg/ml), and 5% fetal calf serum (FCS). The LNCaP cells were maintained in RPMI-1640 with 10% FCS. Transfections were performed using the calcium phosphate precipitation method, as previously described. Yeh, S. et al., Proc. Natl. Acad. Sci. USA 93, 5517-5521(1996).
277. The DU145 and PC-3 cells were maintained in Dulbecco's Minimum Essential Medium (DMEM) containing penicillin (25 U/ml), streptomycin (25 μg/ml), and 5% fetal calf serum (FCS). The LNCaP cells were maintained in RPMI-1640-10% FCS. Transfections were performed using the calcium phosphate precipitation method in PC-3 and DU145, as previously described. Yeh, S., Lin, H. K., Kang, H. Y., Thin, T. H., Lin, M. F. & Chang, C. (1999) Proc Natl Acad Sci U S A 96, 5458-63. LNCaP cells were transfected using SuperFect™ according to standard procedures (Qiagen).

For data set [4], the system named is PC-3(AR)2, PC-3(AR)6, SAR-91 cells. Description: Androgen/AR-induced apoptosis, TUNEL assay in PC-3(AR)2, PC-3(AR)6 and SAR-91 cells. In kind it is cell-based. As to conditions: HF 5 μM, IGF-1 100 ng/ml, DHT 10 nM, 3 days.
Source text: 17. […] (A) PC-3(AR)2 and PC-3(AR)6 expressed AR protein. PC-3 cells were stably transfected with AR, followed by selection with hygromycin B, and confirmed by western blotting using AR antibody NH27, while LNCaP was used as a positive control. (B) Androgen/AR-induced apoptosis in PC-3(AR)2, PC-3(AR)6, and SAR-91 were inhibited by PI(3)K/Akt pathway. […] The data are means±s.d. from three independent experiments.
as §1, §2

Data set [5] concerns AR transactivation. The data set can be described thus: AR transactivation with TSA, MMTV-LUC in PC3-AR2 cells. The format is cell-based.
In the next data set the test system is Akt / AR phosphorylation. The data set can be described thus: Akt activation and in vivo AR phosphorylation in COS-1 cells. The format is cell-based. How it is done: 14. […] COS-1 cells were pretreated with ethanol or 20 μM LY294002 for 30 min, followed by treatment with 100 ng/ml IGF-1 for 30 min. The total cell lysates were immunoprecipitated by anti-Akt antibody (New England Biolabs). The immunocomplex was subjected to SDS-PAGE, followed by immunoblot with phospho-Akt (S473) antibody or Akt antibody. (B) IGF-1 phosphorylates AR in vivo via Akt. COS-1 cells were cultured in [^32P]-PO4-containing medium. AR immunocomplex was subjected to SDS-PAGE followed by autoradiography. Immunobloting confirmed equivalent amounts of AR in immunocomplex. (C) cAkt, but not dAkt, phosphorylates wtAR, but not mtAR S210A and mtAR S790A in vivo. COS-1 cells were transfected with wtAR, mtAR S210A, or mtAR S790A in combination with PCDNA3 vector, cAkt, or dAkt. After 24 h transfection, cells were labeled with [^32P]-PO4 for 4 h. (D) Suppression of AR transactivation by Akt in a dose-dependent manner. […] Transactivation was measured by CAT activity using MMTV-CAT as a reporter. (E) mtAR S210A is resistant to Akt suppressive effect on AR transactivation. DU145 cells were transfected with plasmids encoding wtAR, mtAR S210A or mtAR S790A in presence of cAkt or dAkt for 24 h. Ligand treatment and AR transactivation were performed as previously described. The data are means±s.d. from three independent experiments.
282. […]

Entries after “also recorded” stand apart in the source; their conditions may differ.

On to “PTEN-PTP: PTEN peptide (aa, 110-163) containing the phosphatase domain (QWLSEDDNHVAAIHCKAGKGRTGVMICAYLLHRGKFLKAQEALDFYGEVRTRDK; left off: a dimerising Fc or GST)”, for which the “Effect on AR transactivation” value in the data set on AR transactivation [1] is recorded as “suppress of AR transactivation”. In addition, the AR degradation entry in the data set on AR protein levels was “promote AR degradation”.

`CCCCCCCCCCCCCC(=O)O[C@@H]1[C@@H](C)[C@@]2(O)[C@@H](C=C(CO)C[C@]3(O)C(=O)C(C)=C[C@@H]23)[C@H]2C(C)(C)[C@]12OC(C)=O` [TPA, 12-0-tetradecanoyl phorbol-13-acetate]: the “LNCaP cell apoptosis, agent per se” value in the data set with LNCaP cells was “only marginal effects on apoptosis”.

Turning to `C[C@]12CCC(=O)C[C@@H]1CC[C@@H]1[C@@H]2CC[C@]2(C)[C@@H](O)CC[C@@H]12` [DHT, 5α-dihydrotestosterone, reference compound], the “PSA mRNA expression” value in the data set with PSA mRNA expression (10 nM DHT) is listed as “induced PSA mRNA expression; also recorded: increases PSA mRNA expression”. Further, the IL-6 protein expression result in the data set on IL-6 protein expression (0, 1, 10 or 50 nM DHT 24 h, then 160 nM PMA 24 h) is reported as “reduced by DHT in a dose-dependant manner”. In addition, the “wtAR transactivation response to ligand” value in [2] is “responded well”. Further, the “IL-6-induced PI3K activity” value in the data set with PI3K (DHT and IL-6 for 30 min) was “repress PI3K activity significantly”. The p21 promoter activity result in the data set on p21 expression is “induce p21 promoter activity”. For the same compound, the “LNCaP cell apoptosis, agent per se” value in the data set on LNCaP cells is given as “only marginal effects on apoptosis”.

For IL-6: a pleiotropic cytokine, the PI3K activity entry with PI3K (PC-3, DU145 cells, 50 μg/ml IL-6 for 30 min) is “increase PI3K activity”. Besides, the “Effect of IL-6 on AR transactivation (CAT activity)” value is recorded as “repress AR transactivation” in the data set on AR transactivation [3] (MAPK pathway inhibited by 20 μM P098059 30 min prior to IL-6); “enhance AR transactivation” in the data set with AR transactivation [3] (PI3K pathway inhibited by 20 μM LY294002 30 min prior to IL-6); “very limited effect” in the data set with AR transactivation [3] (none of the MAPK and PI3K pathways blocked, DHT 24 h).

For `CC(C)(O)C(=O)Nc1ccc([N+](=O)[O-])c(C(F)(F)F)c1` [HF, hydroxyflutamide], the “Effect on androgen-induced apoptosis” value in data set [4] is reported as “inhibition of androgen-induced apoptosis”. In the data set with PSA mRNA expression, the “Effect on Smad3-enhanced PSA induction” value is listed as “partially repressed”. Moreover, in the data set with IL-6 protein expression, the “Effect on DHT repression of IL-6 protein expression” value is reported as “reverse this induction”. Further, in data set [2], the “mtARt877a transactivation response to ligand” value is “responded much better” and the “wtAR transactivation response to ligand” value was “respond marginally”. The “Effect on DHT/TPA-induced apoptosis” value with LNCaP cells (LNCaP parent cells) is listed as “repress this DHT/TPA-mediated apoptosis”.

Turning to `CCCC(=O)[O-].[Na+]` [NaB], in the data set with AR transactivation [5], the “Effect on Smad3/Smad4-suppressed AR transactivation” value is on record as “reverse Smad3/Smad4-repressed AR transactivation”.

As for IGF-1: insulin-like growth factor-1, in data set [4], the “Effect on androgen-induced apoptosis” value was “repress androgen-induced apoptosis”. Also, in the data set on Akt / AR phosphorylation (100 ng/ml IGF-1 30 min), the “Akt activation (phospho-Akt S473)” value was “Activation of Akt”. Further, the “AR phosphorylation in vivo” value in the data set on Akt / AR phosphorylation ([32P] labeling) is recorded as “strongly induced AR phosphorylation”. In addition, the results for the “Effect on DHT/TPA-induced apoptosis” value with LNCaP cells (LNCaP cells stably transfected with dAkt) and in the data set with LNCaP cells (LNCaP parent cells) were “only marginal suppressive effects” and “partially repressed DHT/TPA-induced apoptosis”, respectively.

The values are drawn from patent US20040235717A1, “Suppression of androgen receptor transactivation through new pathways to ar and ar coactivators and repressors” (priority 2001, published 2004).
